Test results: patent US9134327B2, “STAT3 and TYK2 as drug targets for neurodegenerative diseases” (Biotechnology Research Corporation Limited, priority 2008, dated 2015)

B1: NGF: growth factor used to differentiate PC12 cells; positive control in the reporter assay (protein, UniProt P25427 122-241, looked up)
Beta-nerve growth factor: SSTHPVFHMGEFSVCDSVSVWVGDKTTATDIKGKEVTVLGEVNINNSVFKQYFFETKCRAPNPVESGCRGIDSKHWNSYCTTTHTFVKALTTDDKQAAWRFIRIDTACVCVLSRKAARRG

Key:
STAT3 (P-Tyr, Tyr705) = assay: Tyrosine phosphorylation of STAT3 in cortical neurons, immunoblot; assay type: cell-based, rat; details: for inhibition of Aβ-induced tyrosine phosphorylation of STAT3: primary cortical neurons pretreated with inhibitor 2 hrs, then Aβ25-35 for 4 hrs or 24 hrs
Method: FIG. 2: Tyrosine phosphorylation of STAT3 is increased in cultured cortical neurons stimulated with Aβ25-35. Primary cortical neurons at 7 DIV were treated with Aβ25-35 (40 μM; H2O served as solvent control) for various times as indicated. Cell lysates were collected and subjected to immunoblotting using P-Tyr STAT3 and total STAT3 antibodies.
(§1) FIG. 4: Tyk2 is required for beta-amyloid peptide-induced tyrosine phosphorylation of STAT3 and neuronal cell death. A. Primary cortical neurons were pretreated with various inhibitors including a potent inhibitor of JAK (JAK inhibitor 1), a JAK2 inhibitor (AG490), a Src tyrosine kinase inhibitor (PP2) and a protein synthesis inhibitor (cycloheximide) for 2 hrs as indicated, followed by treatment with Aβ25-35 peptide for 4 hrs or 24 rs. The cell lysates were immunoblotted with P-Tyr STAT3 and total STAT3 antibody. B. Primary cortical neurons were treated with Aβ25-35. The cell lysates were immunoprecipitated using Tyk2 or JAK2 antibody, and then subjected to Western blot analysis for phospho-tyrosine (P-Tyr) antibody. C. Primary cortical neurons prepared from Tyk2^−/− mice were treated with Aβ25-35. The cell lysates were subjected to immunoblotting using P-Tyr STAT3, total STAT3 and caspase-3 antibody. Quantification analysis of fold change in tyrosine phosphorylated STAT3 and cleaved caspase-3 (bottom panels).
Cultured rat cortical neurons were used as a cell culture model to investigate the role of STAT3 tyrosine phosphorylation in AD. The cortical neurons (7 DIV) were treated with Aβ peptide 25-35.
Since Aβ induced tyrosine phosphorylation of STAT3, the next aim was to identify the upstream regulators of STAT3. Cortical neurons were pre-treated with different inhibitors prior to […] treatment. […] Cortical neurons were treated with Aβ peptide for 1 hr. Endogenous Tyk2 or JAK2 were immunoprecipitated by specific antibodies, and the precipitates were detected by monoclonal phospho-tyrosine antibody, 4G10.
Preparation of Brain Extracts, Cell Extracts, and Western Blots: Four Brain Parts including cortex, hippocampus, cerebellum and striatum were dissected from transgenic mice of various stages (from 2 months to 18 months) and kept on dry ice. Frozen brain tissues were homogenized in homogenizing buffer (25 mM Tris-HCl, pH 7.4, 150 mM NaCl, 1 mM EDTA, pH 7.4, 50 mM NaF) with various protease inhibitors. The supernatant was kept for Western Blotting and the pellets were reextracted using RIPA lysis buffer (150 mM NaCl, 1% (v/v) Nonidet P-40, 0.5% deoxycholic acid, 0.1% (w/v) SDS) containing various protease inhibitors (2 μg/ml aprotinin, 1 mM phenylmethylsulfonyl fluoride, 5 mM benzamidine, 1 mM sodium orthovanadate (NaOV), and 10 μg/ml soybean trypsin inhibitor). Primary cultured cortical neurons or PC12 cells were harvested and lysed in RIPA lysis buffer containing protease inhibitors.

iNOS gene expression = assay: iNOS mRNA in primary cortical neurons, real-time PCR; assay type: cell-based
Method: (§2) FIG. 5: Transcription activity of STAT3 in PC12 cells and iNOS RNA in cultured cortical neurons increases upon stimulation with Aβ25-35. A. PC12 cells were transfected with a STAT1 (pGAS-Luc) or STAT3 (pSTAT3-Luc) reporter gene construct together with an internal control plasmid (β-galactosidase-pCMV). The cells were differentiated by NGF for 4 days, and were then treated with Aβ25-35 or NGF (positive control) for 1 day. Luciferase activity was measured and normalized against the β-galactosidase activity in the samples. Results were normalized with β-galactosidase activity; mean±S.E., n=3; *, p<0.05. B. Primary cortical neurons at 7 DIV were pretreated with STAT3 inhibitor or JAK inhibitor I for 30 minutes, followed by Aβ25-35 (40 μM) treatment for 6 hours. Total RNA was collected and subjected to reverse transcription. The cDNA was then subjected to real-time PCR analysis using iNOS primers.
Primary cortical neurons were treated with Aβ peptide for 6 hr. […]
Quantitative RT-PCR: Total RNA was isolated from Aβ-treated cortical neurons using RNeasy mini kit (Qiagen) according to the manufacturer's instruction. […] Quantitative PCR was performed with specific primers targeting specific genes using Bio-Rad MX3000P real-time PCR system.

STAT1 = STAT1 luciferase reporter (pGAS-Luc) in PC12 cells; assay type: cell-based; details: PC12 cells differentiated by NGF 4 days, treated 1 day
Method: as §2
(§3) To further characterize if Aβ peptide effects STAT3 transcriptional activity, PC12 cells were transfected with a luciferase construct linked to the STAT3-response enhancer element (pSTAT3-Luc). The luciferase construct linked to the STAT1-response enhancer element (pGAS-Luc) was used as a control.

STAT3 = STAT3 luciferase reporter (pSTAT3-Luc) in PC12 cells; assay type: cell-based; details: PC12 cells differentiated by NGF 4 days, treated 1 day
Method: as §2, §3

Tyk2 = Tyk2 tyrosine phosphorylation in cortical neurons, immunoprecipitation and phospho-tyrosine blot; assay type: cell-based; details: cortical neurons treated 1 hr; IP Tyk2, 4G10 blot
Source text: as §1
Since Aβ induced tyrosine phosphorylation of STAT3, the next aim was to identify the upstream regulators of STAT3. Cortical neurons were pre-treated with different inhibitors prior to iv treatment. […] Endogenous Tyk2 or JAK2 were immunoprecipitated by specific antibodies, and the precipitates were detected by monoclonal phospho-tyrosine antibody, 4G10.

Molecule	inhibition of Aβ-induced tyrosine phosphorylation of STAT3 (STAT3 (P-Tyr, Tyr705))	STAT1 promoter activity (pGAS-Luc luciferase) (STAT1)	STAT3 promoter activity (pSTAT3-Luc luciferase) (STAT3)	other results
N#C/C(=C/c1ccc(O)c(O)c1)C(=O)NCc1ccccc1 [AG490]	did not exhibit similar inhibitory effects	–	–	–
CC(C)(C)c1nc2c3cc[nH]c(=O)c3c3cc(F)ccc3c2[nH]1 [JAK inhibitor 1]	completely inhibited	–	–	block of Aβ-induced increase in iNOS gene expression (iNOS gene expression; primary cortical neurons 7 DIV, 30 minutes pretreatment, then Aβ25-35 40 μM for 6 hours): blocked
CC(C)(C)n1nc(-c2ccc(Cl)cc2)c2c(N)ncnc21 [PP2]	neither the Src kinase inhibitor PP2 nor the protein synthesis inhibitor cycloheximide affected	–	–	–
C[C@@H]1C[C@@H]([C@H](O)CC2CC(=O)NC(=O)C2)C(=O)[C@@H](C)C1 [cycloheximide]	neither the Src kinase inhibitor PP2 nor the protein synthesis inhibitor cycloheximide affected	–	–	–
Aβ peptide 25-35: β-amyloid peptide fragment 25-35 used to stimulate neurons and PC12 cells (GSNKGAIIGLM; Amyloid-beta protein 42; UniProt P05067 696-706, looked up, fragment)	–	only induced the STAT3 promoter activity	only induced the STAT3 promoter activity	tyrosine phosphorylation of STAT3 induced by treatment (STAT3 (P-Tyr, Tyr705); cortical neurons 7 DIV, Aβ25-35 40 μM, up to 4 hrs): significant increase in tyrosine phosphorylation of STAT3; iNOS gene expression level after treatment (iNOS gene expression; primary cortical neurons, 6 hr treatment): increased; Tyk2 tyrosine phosphorylation after treatment (Tyk2): could be detected
B1	–	induced the promoter activity of both STAT3 and STAT1	induced the promoter activity of both STAT3 and STAT1	–
